Measured values from patent publication US6890736B1, “Methods for producing proteins in cultured cells” (Immunex Corporation, priority 2002, dated 2005).

Assays:
Format in all cases: cell-based, Chinese hamster
[1] = tested on: cell line 25H9 (CHO cells that produce IL-1R-II protein); test: Example 2: optimization of temperature and decitabine concentration, IL-1R-II production; conditions: 31° C., 0.5 mM butyrate
Procedure: (§1) About 2×10^6 cells of cell line 25H9 were inoculated into 30 milliliters of serum-free medium and incubated at the temperatures indicated in Table 1 in vented shake flasks. At the times indicated in Table 1, samples were taken from each flask to determine IL-1R-II titer, cell number, and cell viability. IL-1R-II protein titer was determined by ELISA assay. Cell number was determined by counting cells in a hemocytometer. Cell viability was determined by trypan blue staining and counting stained cells in a hemocytometer. Cumulative viable cell density (CVCD) is the area under the curve of a plot of the viable cell density versus time (in units of cells/ml/day). Productivity (pg of IL-1R-II/cell/day) was determined by dividing the protein titer on a particular day by the CVCD on the same day. Cells were fed with amino acids on days 2 and 5, and dextrose was added periodically in order to maintain levels above 2.0 g/L. All samples were done in duplicate, and the data shown is an average value.
(§2) To determine an optimum temperature and decitabine concentration, three temperatures (30° C., 31° C., and 32° C.) and three decitabine concentrations (10 μM, 15 μM, and 20 μM) were tested. A 31° C. culture containing 0.5 mM sodium butyrate was grown as a control. […] See e.g. International Application Nos. WO 89/06686 and WO 87/05626. The experiment was performed as in Example 1 except that the inducer concentrations, temperatures, and days at which data was collected are as indicated in Table 2 and FIG. 1.

[2] = Example 2: cell number and viability; conditions: Chinese hamster, 31° C., 0.5 mM butyrate
Procedure: as §1, §2

[3] = tested on: cell line 25H9 (CHO cells); test: Example 2: cell number and viability; conditions: 31° C., 0.5 mM butyrate
Procedure: as §1, §2

[4] = tested on: cell line 25H9 (CHO cells); test: Example 3: cell number (Guava PCA Cytometer); conditions: 31° C.
Procedure: as §1
(§3) The following experiment compares the effects of 5-bromo-2′-deoxycytidine 5′-monophosphate and 5-aza-2′-deoxycytidine on induction of protein production. The experiment was done as described in Example 1 with the following exceptions. All cultures were incubated at 31° C., and cell number and viability were determined using a Guava PCA Cytometer (available from Guava Technologies, Hayward, Calif., USA). Samples were done in triplicate.

[5] = tested on: cell line 25H9 (CHO cells that produce IL-1R-II protein); test: Example 3: induction with 5-bromo-2′-deoxycytidine 5′-monophosphate, IL-1R-II production
Procedure: as §1, §3

CCCC(=O)[O-].[Na+] [butyrate, sodium butyrate]
IL1R-II Titer ([1]; day 0): 0.0 µg/mL
IL1R-II Titer ([1]; day 3): 214.0 µg/mL
Productivity ([1]; day 3): 23.9 pg IL-1R-II/cell/day
IL1R-II Titer ([1]; day 6): 473.0 µg/mL
Productivity ([1]; day 6): 22.6 pg IL-1R-II/cell/day
IL1R-II Titer ([1]; day 8): 862.0 µg/mL
Productivity ([1]; day 8): 29.8 pg IL-1R-II/cell/day
viability at 0 day, 0.5 mM ([2]; day 0): 94.2%
viability at 3 day, 0.5 mM ([2]; day 3): 91.7%
viability at 6 day, 0.5 mM ([2]; day 6): 88.5%
viability at 8 day, 0.5 mM ([2]; day 8): 71.1%
Cumulative Viable Cell Density ([3]; day 0): 0 mL⁻¹ day⁻¹
Viable Cell Density ([3]; day 0): 2e+06 mL⁻¹
Cumulative Viable Cell Density ([3]; day 3): 8.9e+06 mL⁻¹ day⁻¹
Viable Cell Density ([3]; day 3): 4e+06 mL⁻¹
Cumulative Viable Cell Density ([3]; day 6): 2.09e+07 mL⁻¹ day⁻¹
Viable Cell Density ([3]; day 6): 4e+06 mL⁻¹
Cumulative Viable Cell Density ([3]; day 8): 2.89e+07 mL⁻¹ day⁻¹
Viable Cell Density ([3]; day 8): 3.9e+06 mL⁻¹

Nc1nc(=O)n([C@H]2C[C@H](O)[C@@H](COP(=O)(O)O)O2)cc1Br [5-bromo-2′-deoxycytidine 5′-monophosphate]
Cumulative Viable Cell Density ([4]; 5 μM, day 0): 0.0 10^6 cells/ml/day
Viable Cell Density ([4]; 5 μM, day 0): 2.4 cells/ml × 10^6
Cumulative Viable Cell Density ([4]; 5 μM, day 2): 5.5 10^6 cells/ml/day
Viable Cell Density ([4]; 5 μM, day 2): 3.1 cells/ml × 10^6
Cumulative Viable Cell Density ([4]; 5 μM, day 5): 14.3 10^6 cells/ml/day
Viable Cell Density ([4]; 5 μM, day 5): 2.8 cells/ml × 10^6
Cumulative Viable Cell Density ([4]; 5 μM, day 7): 19.4 10^6 cells/ml/day
Viable Cell Density ([4]; 5 μM, day 7): 2.3 cells/ml × 10^6
Cumulative Viable Cell Density ([4]; 5 μM, day 9): 23.5 10^6 cells/ml/day
Viable Cell Density ([4]; 5 μM, day 9): 1.8 cells/ml × 10^6
Cumulative Viable Cell Density ([4]; 10 μM, day 0): 0.0 10^6 cells/ml/day
Viable Cell Density ([4]; 10 μM, day 0): 2.4 cells/ml × 10^6
Cumulative Viable Cell Density ([4]; 10 μM, day 2): 5.6 10^6 cells/ml/day
Viable Cell Density ([4]; 10 μM, day 2): 3.3 cells/ml × 10^6
Cumulative Viable Cell Density ([4]; 10 μM, day 5): 15.0 10^6 cells/ml/day
Viable Cell Density ([4]; 10 μM, day 5): 3.0 cells/ml × 10^6
Cumulative Viable Cell Density ([4]; 10 μM, day 7): 20.9 10^6 cells/ml/day
Viable Cell Density ([4]; 10 μM, day 7): 2.8 cells/ml × 10^6
Cumulative Viable Cell Density ([4]; 10 μM, day 9): 26.0 10^6 cells/ml/day
Viable Cell Density ([4]; 10 μM, day 9): 2.3 cells/ml × 10^6
Cumulative Viable Cell Density ([4]; 15 μM, day 0): 0.0 10^6 cells/ml/day
Viable Cell Density ([4]; 15 μM, day 0): 2.4 cells/ml × 10^6
Cumulative Viable Cell Density ([4]; 15 μM, day 2): 5.4 10^6 cells/ml/day
Viable Cell Density ([4]; 15 μM, day 2): 3.0 cells/ml × 10^6
Cumulative Viable Cell Density ([4]; 15 μM, day 5): 13.8 10^6 cells/ml/day
Viable Cell Density ([4]; 15 μM, day 5): 2.6 cells/ml × 10^6
Cumulative Viable Cell Density ([4]; 15 μM, day 7): 18.6 10^6 cells/ml/day
Viable Cell Density ([4]; 15 μM, day 7): 2.2 cells/ml × 10^6
Cumulative Viable Cell Density ([4]; 15 μM, day 9): 22.4 10^6 cells/ml/day
Viable Cell Density ([4]; 15 μM, day 9): 1.6 cells/ml × 10^6
viable cell density versus 10 μM 5-aza-2′-deoxycytidine ([4]; all three concentrations tested): higher
effectiveness at inducing protein production relative to 5-aza-2′-deoxycytidine ([5]; 31° C.): about twice as effective
inducing IL-1R-II production, 10 μM versus 5 μM or 15 μM ([5]; 31° C.): more effective than either 5 μM or 15 μM
Titer of IL-1R-II ([5]; 31° C., 5 μM, day 0): 0.0 mg/L
Productivity ([5]; 31° C., 5 μM, day 2): 12.4 pg of IL-1RII/cell/day
Titer of IL-1R-II ([5]; 31° C., 5 μM, day 2): 67.6 mg/L
Productivity ([5]; 31° C., 5 μM, day 5): 13.8 pg of IL-1RII/cell/day
Titer of IL-1R-II ([5]; 31° C., 5 μM, day 5): 197.4 mg/L
Productivity ([5]; 31° C., 5 μM, day 7): 14.9 pg of IL-1RII/cell/day
Titer of IL-1R-II ([5]; 31° C., 5 μM, day 7): 289.1 mg/L
Productivity ([5]; 31° C., 5 μM, day 9): 15.2 pg of IL-1RII/cell/day
Titer of IL-1R-II ([5]; 31° C., 5 μM, day 9): 357.6 mg/L
Titer of IL-1R-II ([5]; 31° C., 10 μM, day 0): 0.0 mg/L
Productivity ([5]; 31° C., 10 μM, day 2): 13.4 pg of IL-1RII/cell/day
Titer of IL-1R-II ([5]; 31° C., 10 μM, day 2): 75.0 mg/L
Productivity ([5]; 31° C., 10 μM, day 5): 17.6 pg of IL-1RII/cell/day
Titer of IL-1R-II ([5]; 31° C., 10 μM, day 5): 264.0 mg/L
Productivity ([5]; 31° C., 10 μM, day 7): 19.2 pg of IL-1RII/cell/day
Titer of IL-1R-II ([5]; 31° C., 10 μM, day 7): 401.4 mg/L
Productivity ([5]; 31° C., 10 μM, day 9): 18.6 pg of IL-1RII/cell/day
Titer of IL-1R-II ([5]; 31° C., 10 μM, day 9): 484.0 mg/L
Titer of IL-1R-II ([5]; 31° C., 15 μM, day 0): 0.0 mg/L
Productivity ([5]; 31° C., 15 μM, day 2): 11.4 pg of IL-1RII/cell/day
Titer of IL-1R-II ([5]; 31° C., 15 μM, day 2): 61.4 mg/L
Productivity ([5]; 31° C., 15 μM, day 5): 12.1 pg of IL-1RII/cell/day
Titer of IL-1R-II ([5]; 31° C., 15 μM, day 5): 167.3 mg/L
Productivity ([5]; 31° C., 15 μM, day 7): 13.4 pg of IL-1RII/cell/day
Titer of IL-1R-II ([5]; 31° C., 15 μM, day 7): 249.1 mg/L
Productivity ([5]; 31° C., 15 μM, day 9): 14.2 pg of IL-1RII/cell/day
Titer of IL-1R-II ([5]; 31° C., 15 μM, day 9): 318.3 mg/L
inducing IL-1R-II production, all three concentrations versus 10 μM 5-aza-2′-deoxycytidine ([5]; 31° C., 5, 10, 15 μM): more effective than 10 μM 5-aza-2′-deoxycytidine
